“Also recorded” adds a separate entry of the source. Like-named read-outs stand apart in the source and are kept apart here. Blank lines part the entries; values can stand above or below the molecule they belong to.
Assays:
[1] = DOPE solubility in ethanol (HPLC); type: physicochemical
Description: DOPE and DOPE/DOTMA solubility in ethanol was investigated by preparing 300 mM DOPE or 330 mM DOPE/DOTMA (66:33) solutions in ethanol. The lipids were dissolved by incubating the lipid solutions at 37° C. for 20 minutes. The DOPE solutions were centrifuged at 17000 G for 1h and the DOPE concentration was measured in the supernatant by HPLC. The DOTMA/DOPE solutions were filtered through a 0.22 μm PES syringe filter and the lipid concentration was measured in the filtrate by HPLC. Lipid concentration in the different liposome formulations were measured by HPLC (Agilent technologies. Santa Clara. USA) using a Sunfire C18 2.5 μm 4.6×75 mm column (Waters. Massachusetts. USA) and a wave length of 205 nm. Mobile phase A was a mixture of 70% methanol/30% isopropanol/0.1% TFA, mobile phase B was a mixture of 55% methanol/15% isopropanol/30% water/0.1% TFA. Liposomes samples were or not diluted with water to 3 mM total lipid concentration. It has been tested if DOPE-containing solutions of higher concentration can be prepared (in the supersaturated state) and used for ethanol injection for liposome manufacturing (next section).

[2] = Freezing of RNA lipoplexes with cryoprotectants and NaCl (particle size); type: physicochemical; settings: for preservation of particle size after a single freezing step: 20% (w/v) cryoprotectant, 0 to 60 mM NaCl, −30° C.
Description: Methods: Different compounds representative for monosaccharides (glucose and sorbitol), disaccharides (sucrose and trehalose), amino acids (arginine, prolin), triols (glycerin) as well as cryoprotectant systems containing mixtures of different sugars (mannitol and sucrose) were investigated in order to identify suited cryoprotectants (FIGS. 25 and 26). Therefore RNA lipoplexes were frozen in the presence of increasing concentration of these compounds. In order to identify minimum content of cryoprotectant at a certain concentration of NaCl, RNA lipoplexes were frozen in the presence of increasing amounts of sucrose or trehalose as representative cryoprotectants (Table 7). The samples were initially frozen a single time in order to determine the concentration range of cryoprotectant to be investigated in detail. In a third experiment, the efficacy of stabilization of the particle size was challenged by freezing of the RNA lipoplexes up to 10 times in the presence of the cryoprotectant trehalose (Table 8).

[3] = RNA integrity in RNA lipoplexes, accelerated storage at 25° C.; settings: for stabilization of the RNA integrity by buffer system: 5 mM buffer, pH 6.0-7.0, liposomes with 2 mM acetic acid; for stability of the RNA in RNA lipoplexes by buffer system: 10% sucrose, 6.45 mM NaCl, liposomes with 5 mM acetic acid
Description: RNA lipoplexes are incubated under accelerated conditions (25° C.) in the presence of an exemplarily cryoprotectant. RNA integrity was analyzed by capillary electrophoresis over 60 days. Additionally, RNA lipoplexes are incubated under at the anticipated storage conditions (−15° C.) in the presence of an exemplarily cryoprotectant for up to two years. RNA integrity was analyzed by capillary electrophoresis.
The respective RNA lipoplexes were investigated under accelerated conditions (25° C.) and in the frozen state (−15° C.).
RNA lipoplexes were formed with liposomes containing 2 mM of acetic acid. The respective RNA lipoplexes were investigated under accelerated conditions (25° C.) and in the frozen state (−15° C.).
Method: All RNA lipoplexes were automatically prepared in a single batch and the different concentrations of HEPES were adjusted by the addition of a cryoprotectant solution containing different amounts of HEPES. Particle sizes and polydispersity of RNA lipolexes were analyzed by photon correlation spectroscopy (PCS) measurements. Additionally, the RNA integrity was analyzed by capillary electrophoresis and the pH was measured.
In the following study, the concentration of HEPES which is required for stabilization of the pH of the RNA lipoplexes was investigated. RNA lipoplexes were formed with liposomes containing 5 mM of acetic acid and different concentrations of HEPES were adjusted by using different cryoprotectant solutions and the respective RNA lipoplexes were investigated under accelerated conditions (25° C.). The pH range from pH 6.2 to 7.2 was tested.
In the following study, the long-term stability of RNA lipoplexes in the frozen state was investigated with the combination of the reduced concentration of NaCl and Sucrose in the presence of either HEPES or Histidine as a buffering agent at a pH of 6.5.
To analyze the RNA integrity, the RNA had to be isolated from the RNA lipoplexes. Cryoprotected RNA lipoplexes were mixed with RNeasy kit (Qiagen) RLT buffer in a ratio of 1 to 3.5. Then ethanol was added in a ratio of 1 part ethanol to 1.8 parts LPX-RLT.
The further RNA isolation was done using the RNeasy Mini Kit protocol and the RNeasy Mini Kit from Qiagen.
The integrity of the RNA was analyzed using a 48 capillary Fragment Analyzer Automated System by Advanced Analytical (AATI) according to the manufacturers instructions. Results were analyzed via PROSize 2.0 version 2.0.051 data analysis software.
Method: BM1 RNA lipoplexes were prepared as described above. All other RNA lipoplexes were prepared as described above with liposomes containing 5 mM acetic acid.
BM1 RNA lipoplexes were cryoprotected and RNA concentration adjusted as described above. All other RNA lipoplexes were cryoprotected by adding cryoprotection buffer containing the respective buffer substance in a ratio of 1 to 6.7. Final pH values were titrated by adding HCl or NaOH to the cryoprotected RNA lipoplexes, ending up to the following compositions:
Titrated, cryoprotected RNA lipoplexes were filled into 10R glass vials and stored at ambient temperature (25° C.) for at least 61 days. At defined points in time, two vials per group were collected and the RNA integrity was determined.

[4] = Description: The mean value calculated from the first DOPE integrity values of the samples directly after manufacturing (0 month) was set to 1 as the initial integrity value of the respective study arm. The following values were normalized to this starting value.
Method: Liposomes were prepared as described above. To acidify the liposomes, different volumes of a 1 M stock solution of acetic acid was added to the liposomes with a total lipid concentration of 0.9 mM. After that, liposomes were stored at different acetic acid concentrations in a range from 0 mM to 3 mM up to a maximum of 6 months at different temperatures (4° C., 25° C. and 40° C.).

[5] = RNA integrity in RNA lipoplexes at 40° C. (capillary electrophoresis); settings: 21 days, no cryoprotectant
Method: RNA lipoplexes are initially incubated under stress conditions (40° C.) in the absence of cryoprotectant. RNA integrity was analyzed by capillary electrophoresis over 21 days. In order to investigate the optimum pH range in the presence of an exemplary cryoprotectant, RNA lipoplexes were incubated in the presence of HEPES and sucrose at 40° C. and RNA integrity was analyzed for 21 days.
RNA integrity was analyzed as a key physicochemical parameter over 21 days.

[6] = Storage of drug product at −15° C., particle size and AF4; type: physicochemical; settings: derived from AF4 data, worst-case conditions, 12 months
Description: The AF4 method is a fractionation technique for characterization and separation of nanoparticles, polymers and proteins based on their diffusion coefficient. The separation is achieved using hydrodynamic forces applied in the flat separation channel. Within a channel, a parabolic flow profile is created due to the laminar flow of mobile phase against which a perpendicular force field is applied. The separation was performed by an elution inject program with an inject flow of 0.2 mL/min, detector flow of 0.5 mL/min and crossflow of 1.5 mL/min. The eluted particles were detected by multi-angle light scattering (MALS) detector (HELLEOS II, Wyatt Technology Corp.Santa Barbara, CA, USA). The LS traces were recorded by ASTRA Software Version 7.1.3.25 (Wyatt Technology Europe, Dernbach Germany).
Method: BM1 RNA lipoplexes were prepared as described above.
All other RNA lipoplexes were cryoprotected by adding cryoprotection buffers with no EDTA disodium salt (groups 0 mM and 0.4 mM EDTA disodium salt) or with EDTA disodium salt in a ratio of 1 to 6.7 to generate different EDTA disodium salt concentrations in the final PD composition.
Method: RNA lipoplexes were prepared with increasing amounts of NaCl for condensation of the RNA and liposomes without acetic acid. […]

[7] = remark: listed apart in the source
Description: The samples were frozen at −30° C. and then transferred to the respective temperature for long-term storage (either −15 or −30° C.). After defined storage time, samples were analyzed and preservation of the colloidal stability was analyzed by measuring the particle size using PCS. These experiments were performed at a total RNA concentration of 0.05 mg/mL.
Method: To investigate the minimum content of representative cryoprotectants as sucrose, trehalose, glucose and mixtures including dextran required for long-term storage at −20° C., RNA lipoplexes were frozen at a fixed cryoprotectant content in combination with varying NaCl concentrations. For monomeric or dimeric molecular cryoprotectants as glucose, sucrose, and trehalose a concentration of 22% (w/v) was adjusted. These formulations were frozen and stored at −15 to −40° C. and long-term stability was investigated by measuring the particle size using PCS after defined storage time.
The samples were frozen and stored at −20° C. After defined storage time, samples were analyzed and preservation of the colloidal stability was analyzed by measuring the particle size.

[8] = frozen with increasing amounts of cryoprotectant, Z-average, polydispersity, subvisible particles
[9] = 70 mM NaCl, up to 10 times freezing
[10] = 90 mM NaCl, up to 10 times freezing

SMILES: CCCCCCCC/C=C\CCCCCCCC(=O)OC[C@H](COP(=O)(O)OCCN)OC(=O)CCCCCCC/C=C\CCCCCCCC [DOPE, 1,2-di-(9Z-octadecenoyl)-sn-glycero-3-phosphoethanolamine]
DOPE solubility in ethanol [1]: 59 mM

SMILES: OCC(O)CO [Glycerin]
stabilization of RNA lipoplexes during freezing [2, 8]: can be used as cryoprotectants for RNA lipoplexes

SMILES: O=C([O-])[O-].[Na+].[Na+] [carbonate, sodium carbonate]
stabilization of the RNA (RNA integrity) by buffering system [5]: did not result in comparable stabilization of the RNA

SMILES: O=C(O)[C@@H]1CCCN1 [proline]
stabilization of RNA lipoplexes during freezing [2]: can be used as cryoprotectants for RNA lipoplexes

SMILES: O=P(O)(O)O [sodium phosphate]
stabilization of the RNA (RNA integrity) by buffering system [5]: comparable results

SMILES: OC[C@@H](O)[C@@H](O)[C@H](O)[C@@H](O)CO [sorbitol]
stabilization of RNA lipoplexes during freezing [2, 8]: can be used as cryoprotectants for RNA lipoplexes; also recorded: stabilization efficacy of sorbitol is lower

Second part, led by results:

stability of the RNA in RNA lipoplexes by buffer system [3]: best stability
SMILES: O=S(=O)(O)CCN1CCN(CCO)CC1 [HEPES, 2-[4-(2-hydroxyethyl)piperazin-1-yl]ethanesulfonic acid]
stabilization of the RNA integrity by buffer system [3]: comparable stabilization of the RNA integrity
RNA stability in the drug product by buffer ([3]; 61 days, pH 6.4 to 7.0, vs Histidine, MES, Na-Acetate): significantly enhanced RNA stability in the drug product

stabilization of the RNA integrity by buffer system [3]: slightly reduced stability
stability of the RNA in RNA lipoplexes by buffer system [3]: lower stability
SMILES: N[C@@H](Cc1c[nH]cn1)C(=O)O [Histidine]

acetic acid concentration above which stabilization efficacy plateaus ([4]; liposomes 0.9 mM total lipid): approx. 1 mM
SMILES: CC(=O)O [acetic acid]
stability of DOPE in liposomes (DOPE ester hydrolysis) ([4]; 0-3 mM acetic acid, 4° C., 25° C., 40° C., up to 6 months): Stability increases for all measured temperatures with increasing acetic acid concentration

stabilization of RNA lipoplexes during freezing [2, 8]: clearly destabilizes the RNA lipoplexes
SMILES: N=C(N)NCCC[C@H](N)C(=O)O [arginine]

preservation of particle size after a single freezing step [2]: acceptable preservation of particle size
sucrose concentration to ensure long-term stability of the drug product [6]: at least 12 % (w/v)
SMILES: OC[C@H]1O[C@@](CO)(O[C@H]2O[C@H](CO)[C@@H](O)[C@H](O)[C@H]2O)[C@@H](O)[C@@H]1O [sucrose]
stabilization efficacy on long-term storage [7]: No difference in the stabilization efficacy

trehalose sufficient for stabilization of RNA lipoplex particle characteristics ([2]; 50 mM NaCl, even after 10 times freezing): ≥ 12.5%
trehalose required for exact preservation of the particle size [2, 9]: ≥ 22.5%
trehalose required for minimum stabilization [2, 9]: ≥ 12.5%
trehalose required for minimum stabilization [2, 10]: ≥ 15.0%
preservation of particle size after a single freezing step [2]: acceptable preservation of particle size
SMILES: OC[C@H]1O[C@H](O[C@H]2O[C@H](CO)[C@@H](O)[C@H](O)[C@H]2O)[C@H](O)[C@@H](O)[C@@H]1O [trehalose]
exact preservation of the particle size [2, 10]: could not be achieved even with the highest investigated concentration of 27.5%
stabilization efficacy on long-term storage [7]: No difference in the stabilization efficacy
